According to the CheMixHub ionic liquid set:

Assay: xn = mol fraction of the nth substance listed

CCCCCCCC[n+]1ccc2ccccc2c1.O=S(=O)([N-]S(=O)(=O)C(F)(F)F)C(F)(F)F + OCCc1ccccc1
101 kPa
Conditions	viscosity [mPa·s]
298.15 K, x2 = 0.5766	60.64
298.15 K, x2 = 0.8956	18.61
308.15 K, x2 = 0.695	25
318.15 K, x2 = 0.1985	71.5
318.15 K, x2 = 0.3748	45.28
318.15 K, x2 = 0.5766	23.86
328.15 K, x2 = 0.0851	58.53
328.15 K, x2 = 0.3748	30.17
328.15 K, x2 = 0.5766	16.54
328.15 K, x2 = 0.695	11.76
338.15 K, x2 = 0.0851	39.05
338.15 K, x2 = 0.3748	21.2
338.15 K, x2 = 0.695	8.67

CCCCCCCC[N+](C)(C)C.[Br-] + O
298.15 K, 101 kPa
Conditions	viscosity [mPa·s]
x1 = 0.000891	0.9226
x1 = 0.001742	0.956
x1 = 0.002174	0.9692
x1 = 0.002616	0.9795
x1 = 0.003154	0.9978
x1 = 0.003538	1.012
x1 = 0.004276	1.036
x1 = 0.004645	1.048
x1 = 0.005039	1.058
x1 = 0.005479	1.076

CC[N+](C)(CC)CCOC.F[B-](F)(F)F + CCCC[n+]1ccn(C)c1C.F[B-](F)(F)F
100 kPa
Conditions	electrical conductivity [S/m]
313.15 K, x1 = 0.4	0.289
313.15 K, x1 = 0.7	0.302
318.15 K, x1 = 0.2	0.318
318.15 K, x1 = 0.4	0.361
318.15 K, x1 = 0.5	0.369
318.15 K, x1 = 0.8	0.41
318.15 K, x1 = 1	0.437
328.15 K, x1 = 0.1	0.492
328.15 K, x1 = 0.2	0.502
328.15 K, x1 = 0.5	0.555
328.15 K, x1 = 0.9	0.682
333.15 K, x1 = 0.5	0.685
338.15 K, x1 = 0.4	0.772
343.15 K, x1 = 0.4	0.913
348.15 K, x1 = 0.6	1.14
353.15 K, x1 = 0.2	1.18
353.15 K, x1 = 0.3	1.21
353.15 K, x1 = 0.4	1.24
353.15 K, x1 = 0.5	1.27
353.15 K, x1 = 0.7	1.38
353.15 K, x1 = 1	1.62
358.15 K, x1 = 0.3	1.39
358.15 K, x1 = 0.4	1.42
358.15 K, x1 = 0.8	1.61
363.15 K, x1 = 0.5	1.67
363.15 K, x1 = 1	2.1

CC[n+]1ccn(C)c1.O=S(=O)([O-])C(F)(F)F + O + CC(=O)[O-].CC[n+]1ccn(C)c1
293.15 K, 100 kPa
Conditions	viscosity [mPa·s]
x2 = 0.337, x3 = 0.64	91
x2 = 0.341, x3 = 0.612	87
x2 = 0.348, x3 = 0.555	80
x2 = 0.359, x3 = 0.492	72

CCCCC[N+](CCCCC)(CCCCC)CCCCC.[Br-] + CCCCCCCCCCCCOS(=O)(=O)[O-].[Na+] + O
viscosity [mPa·s], 100 kPa
Conditions	x2 = 1.81e-06, x1 = 0.0001802	x2 = 3.62e-06, x1 = 0.0001802	x2 = 5.43e-06, x1 = 0.0001802	x2 = 7.23e-06, x1 = 0.0001802	x2 = 9.04e-06, x1 = 0.0001802	x2 = 1.085e-05, x1 = 0.0001802	x2 = 1.266e-05, x1 = 0.0001802	x2 = 1.447e-05, x1 = 0.0001802	x2 = 1.628e-05, x1 = 0.0001802	x2 = 1.808e-05, x1 = 0.0001802
293.15 K	1.024	1.026	1.027	1.028	1.028	1.029	1.029	1.029	1.03	1.03
298.15 K	0.914	0.916	0.917	0.917	0.919	0.92	0.921	0.921	0.922	0.922
303.15 K	0.8	0.801	0.802	0.803	0.803	0.803	0.803	0.803	0.804	0.805
308.15 K	0.723	0.723	0.724	0.724	0.724	0.724	0.725	0.725	0.726	0.726
313.15 K	0.658	0.659	0.66	0.66	0.661	0.661	0.661	0.661	0.662	0.662
318.15 K	0.604	0.605	0.605	0.605	0.606	0.606	0.606	0.606	0.606	0.606

CCCCCCCCCCCCCC[P+](CCCCCC)(CCCCCC)CCCCCC.N#C[N-]C#N + COCCOCCOCCOCCOC
viscosity [mPa·s], 100 kPa
Conditions	278.15 K	283.15 K	288.15 K	293.15 K	298.15 K	303.15 K	308.15 K	313.15 K	318.15 K	323.15 K
x2 = 0	1750	1210	842	603	442	331	253	196	155	124
x2 = 0.099	1130	794	566	413	308	234	182	143	115	93
x2 = 0.203	708	508	370	275	209	162	128	103	83	69
x2 = 0.299	479	348	258	195	151	119	96	78	64	54
x2 = 0.501	160	122	95	75	61	–	–	–	–	–
x2 = 0.652	73	57	–	–	–	–	–	–	–	–

CCCCOC(C)=O + CCCC[n+]1ccn(C)c1.O=S(=O)([N-]S(=O)(=O)C(F)(F)F)C(F)(F)F
Conditions	electrical conductivity, x1 = 0.8928 [S/m]	electrical conductivity, x1 = 0.9456 [S/m]	viscosity, x1 = 0.313 [mPa·s]	viscosity, x1 = 0.8928 [mPa·s]	viscosity, x1 = 0.9456 [mPa·s]
298.15 K, 100 kPa	0.373	0.163	–	1.47	1.092
318.15 K, 100.7 kPa	–	–	10	–	–
